For this experiment, the target named is T1, human RIPK1 (1-375) (Homo sapiens, UniProt Q13546).
T1 construct: human RIPK1 (1-375) gene; GST; made in house; host or cells: Sf-9 insect cells
T1 sequence (Q13546 1-375): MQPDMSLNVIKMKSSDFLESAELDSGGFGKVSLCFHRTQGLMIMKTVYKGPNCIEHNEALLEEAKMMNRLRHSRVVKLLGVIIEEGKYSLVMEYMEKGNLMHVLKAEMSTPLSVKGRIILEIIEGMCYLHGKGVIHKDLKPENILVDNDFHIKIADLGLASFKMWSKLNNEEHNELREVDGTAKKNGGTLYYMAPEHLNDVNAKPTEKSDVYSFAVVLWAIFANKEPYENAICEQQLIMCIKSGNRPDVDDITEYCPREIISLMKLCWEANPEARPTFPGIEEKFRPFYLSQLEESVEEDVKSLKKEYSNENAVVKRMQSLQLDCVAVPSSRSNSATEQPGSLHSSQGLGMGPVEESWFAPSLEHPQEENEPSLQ
Kind of experiment: Human RIPK1 enzyme inhibitory effect (ADP-Glo Kinase Assay). Particulars: well without enzyme = 100% inhibition; for inhibition at 10 µM: read-out: human RIPK1 enzyme inhibitory effect at 10 μM (% inhibition), 10 μM test compound; for human RIPK1 enzyme inhibitory effect at 10 μM (% inhibition): 10 μM test compound. The experiment is classed as biochemical. The procedure, abridged: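 ADP-Glo luminescence read-out of ADP formed over 120 min at room temperature after adding 0.6 mM ATP solution (stock concentration). Compound and Sf-9-expressed, GST-purified RIPK1 (1-375) were first incubated together for 20 min in HEPES pH 7.5 buffer with MgCl2, Tween-20 and DTT.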

Regarding `CN1C(=O)[C@@H](N2CCc3c(nn(Cc4ccccc4)c3OC(F)F)C2=O)COc2cc(Br)ccc21` [Example 123, (3S)-3-(2-benzyl-3-(difluoromethoxy)-7-oxo-2,4,5,7-tetrahydro-6H-pyrazolo[3,4-c]pyridin-6-yl)-8-bromo-5-methyl-2,3-dihydro-1,5-benzoxazepin-4(5H)-one], the inhibition at 10 µM turned out to be 98%.

`CN1C(=O)[C@@H](N2CCc3c(nn(Cc4ccccc4)c3OC(F)F)C2=O)COc2cc(C#N)ccc21` [Example 124, (32)-3-(2-benzyl-3-(difluoromethoxy)-7-oxo-2,4,5,7-tetrahydro-6H-pyrazolo[3,4-c]pyridin-6-yl)-5-methyl-4-oxo-2,3,4,5-tetrahydro-1,5-benzoxazepine-8-carbonitrile]: the inhibition at 10 µM was 98%.

Take `CN1C(=O)[C@@H](N2CCc3c(nn(Cc4ccccc4)c3Cl)C2=O)COc2cc(-c3ccn(C)n3)c(F)cc21` [Example 125, (3S)-3-(2-benzyl-3-chloro-7-oxo-2,4,5,7-tetrahydro-6H-pyrazolo[3,4-c]pyridin-6-yl)-7-fluoro-5-methyl-8-(1-methyl-1H-pyrazol-3-yl)-2,3-dihydro-1,5-benzoxazepin-4(5H)-one]: the inhibition at 10 µM is 101%.

On to `CN1C(=O)C(N2CCc3c(nn(Cc4ccccc4)c3Cl)C2=O)CCc2c1cnn2C` (stereo not shown) [Example 126, 6-(2-benzyl-3-chloro-7-oxo-2,4,5,7-tetrahydro-6H-pyrazolo[3,4-c]pyridin-6-yl)-1,4-dimethyl-4,6,7,8-tetrahydropyrazolo[4,3-b]azepin-5(1H)-one], for which the inhibition at 10 µM is 98%.

In the case of `CN1C(=O)C(N2CCc3c(nn(Cc4ccccc4)c3Cl)C2=O)CCc2c1cnn2C` (stereo not shown) [Example 127, 6-(2-benzyl-3-chloro-7-oxo-2,4,5,7-tetrahydro-6H-pyrazolo[3,4-c]pyridin-6-yl)-1,4-dimethyl-4,6,7,8-tetrahydropyrazolo[4,3-b]azepin-5(1H)-one], the “human RIPK1 enzyme inhibitory effect at 10 μM (% inhibition)” value stood at 100%.

On to `CN1C(=O)C(N2CCc3c(nn(Cc4ccccc4)c3Cl)C2=O)CCc2c1cnn2C` (stereo not shown) [Example 128, 6-(2-benzyl-3-chloro-7-oxo-2,4,5,7-tetrahydro-6H-pyrazolo[3,4-c]pyridin-6-yl)-1,4-dimethyl-4,6,7,8-tetrahydropyrazolo[4,3-b]azepin-5(1H)-one], for which the “human RIPK1 enzyme inhibitory effect at 10 μM (% inhibition)” value was found to be 84%.

In the case of `CN1C(=O)C(N2CCc3c(nn(Cc4ccccc4F)c3Cl)C2=O)CCc2c1cnn2C` (stereo not shown) [Example 129, 6-(3-chloro-2-(2-fluorobenzyl)-7-oxo-2,4,5,7-tetrahydro-6H-pyrazolo[3,4-c]pyridin-6-yl)-1,4-dimethyl-4,6,7,8-tetrahydropyrazolo[4,3-b]azepin-5(1H)-one], the inhibition at 10 µM turned out to be 98%.

For `CN1C(=O)C(N2CCc3c(nn(Cc4c(F)cccc4F)c3Cl)C2=O)CCc2c1cnn2C` (stereo not shown) [Example 130, 6-(3-chloro-2-(2,6-difluorobenzyl)-7-oxo-2,4,5,7-tetrahydro-6H-pyrazolo[3,4-c]pyridin-6-yl)-1,4-dimethyl-4,6,7,8-tetrahydropyrazolo[4,3-b]azepin-5(1H)-one], the inhibition at 10 µM turned out to be 100%.

With `CN1C(=O)C(N2CCc3c(nn(Cc4ccccc4F)c3Cl)C2=O)CCc2c1cnn2C` (stereo not shown) [Example 131, 6-(3-chloro-2-(2-fluorobenzyl)-7-oxo-2,4,5,7-tetrahydro-6H-pyrazolo[3,4-c]pyridin-6-yl)-1,4-dimethyl-4,6,7,8-tetrahydropyrazolo[4,3-b]azepin-5(1H)-one], the “human RIPK1 enzyme inhibitory effect at 10 μM (% inhibition)” value was determined as 100%.

Turning to `CN1C(=O)C(N2CCc3c(nn(Cc4ccccc4F)c3Cl)C2=O)CCc2c1cnn2C` (stereo not shown) [Example 132, 6-(3-chloro-2-(2-fluorobenzyl)-7-oxo-2,4,5,7-tetrahydro-6H-pyrazolo[3,4-c]pyridin-6-yl)-1,4-dimethyl-4,6,7,8-tetrahydropyrazolo[4,3-b]azepin-5(1H)-one], the “human RIPK1 enzyme inhibitory effect at 10 μM (% inhibition)” value is recorded as 89%.

For `CN1C(=O)C(N2CCc3c(nn(Cc4c(F)cccc4F)c3Cl)C2=O)CCc2c1cnn2C` (stereo not shown) [Example 133, 6-(3-chloro-2-(2,6-difluorobenzyl)-7-oxo-2,4,5,7-tetrahydro-6H-pyrazolo[3,4-c]pyridin-6-yl)-1,4-dimethyl-4,6,7,8-tetrahydropyrazolo[4,3-b]azepin-5(1H)-one], the “human RIPK1 enzyme inhibitory effect at 10 μM (% inhibition)” value was 100%.

For the compound `CN1C(=O)C(N2CCc3c(nn(Cc4c(F)cccc4F)c3Cl)C2=O)CCc2c1cnn2C` (stereo not shown) [Example 134, 6-(3-chloro-2-(2,6-difluorobenzyl)-7-oxo-2,4,5,7-tetrahydro-6H-pyrazolo[3,4-c]pyridin-6-yl)-1,4-dimethyl-4,6,7,8-tetrahydropyrazolo[4,3-b]azepin-5(1H)-one], the “human RIPK1 enzyme inhibitory effect at 10 μM (% inhibition)” value is 93%.

Regarding `CNC(=O)c1ccc2c(c1)CCC(N1CCc3c(nn(Cc4ccccc4)c3Cl)C1=O)C(=O)N2C` (stereo not shown) [Example 135, 3-(2-benzyl-3-chloro-7-oxo-2,4,5,7-tetrahydro-6H-pyrazolo[3,4-c]pyridin-6-yl)-N,1-dimethyl-2-oxo-2,3,4,5-tetrahydro-1H-1-benzazepine-7-carboxamide], the inhibition at 10 µM turned out to be 101%.

Consider `CNC(=O)c1ccc2c(c1)CCC(N1CCc3c(nn(Cc4ccccc4)c3Cl)C1=O)C(=O)N2C` (stereo not shown) [Example 136, 3-(2-benzyl-3-chloro-7-oxo-2,4,5,7-tetrahydro-6H-pyrazolo[3,4-c]pyridin-6-yl)-N,1-dimethyl-2-oxo-2,3,4,5-tetrahydro-1H-1-benzazepine-7-carboxamide], for which the “human RIPK1 enzyme inhibitory effect at 10 μM (% inhibition)” value is recorded as 101%.

For the compound `CNC(=O)c1ccc2c(c1)CCC(N1CCc3c(nn(Cc4ccccc4)c3Cl)C1=O)C(=O)N2C` (stereo not shown) [Example 137, 3-(2-benzyl-3-chloro-7-oxo-2,4,5,7-tetrahydro-6H-pyrazolo[3,4-c]pyridin-6-yl)-N,1-dimethyl-2-oxo-2,3,4,5-tetrahydro-1H-1-benzazepine-7-carboxamide], the “human RIPK1 enzyme inhibitory effect at 10 μM (% inhibition)” value is reported as 87%.

On to `CN1C(=O)[C@@H](N2CCc3cn(Cc4ccccc4F)nc3C2=O)COc2ccc(Br)cc21` [Example 138, (3S)-7-bromo-3-(2-(2-fluorobenzyl)-7-oxo-2,4,5,7-tetrahydro-6H-pyrazolo[3,4-c]pyridin-6-yl)-5-methyl-2,3-dihydro-1,5-benzoxazepin-4(5H)-one], for which the inhibition at 10 µM worked out at 101%.

On to `CN1C(=O)[C@@H](N2CCc3c(nn(Cc4ccccc4)c3Cl)C2=O)COc2cc(-c3ncco3)ccc21` [Example 139, (3S)-3-(2-benzyl-3-chloro-7-oxo-2,4,5,7-tetrahydro-6H-pyrazolo[3,4-c]pyridin-6-yl)-5-methyl-8-(1,3-oxazol-2-yl)-2,3-dihydro-1,5-benzoxazepin-4(5H)-one], for which the inhibition at 10 µM was found to be 100%.

For `CN1C(=O)[C@@H](N2CCc3c(nn(Cc4ccccc4)c3Cl)C2=O)COc2cc(-c3cn[nH]c3)ccc21` [Example 140, (3S)-3-(2-benzyl-3-chloro-7-oxo-2,4,5,7-tetrahydro-6H-pyrazolo[3,4-c]pyridin-6-yl)-5-methyl-8-(1H-pyrazol-4-yl)-2,3-dihydro-1,5-benzoxazepin-4(5H)-one], the inhibition at 10 µM turned out to be 102%.

Take `COCc1ccc2c(c1)OC[C@H](N1CCc3c(nn(Cc4ccccc4)c3Cl)C1=O)C(=O)N2C` [Example 141, (3S)-3-(2-benzyl-3-chloro-7-oxo-2,4,5,7-tetrahydro-6H-pyrazolo[3,4-c]pyridin-6-yl)-8-(methoxymethyl)-5-methyl-2,3-dihydro-1,5-benzoxazepin-4(5H)-one]: the inhibition at 10 µM stood at 100%.

Values taken from US10787462B2, “Heterocyclic compound” (TAKEDA PHARMACEUTICAL COMPANY LIMITED, priority 2015, dated 2020).
